The subject of experiment [1] is BRAF^V600E melanoma cell lines. In words: Growth response to drug combinations with VEM (Bliss combination index). In kind it is cell-based. The settings on record: A375 and Sk-Mel-28; VEM + 2nd drug. From the text: (a) Summary of possible cell responses to the combination of two drugs. The heatmap on the left represents the experimental effects of combining increasing concentrations of drug A+B as changes in cancer cell growth. The middle graph is a conceptual representation of how differences in effects of drugs alone or combined can be interpreted as either synergistic, additive, or antagonistic (derived from^10). The heatmap on the right represents the calculated combination index from all experimental cell growth data points. We decided to analyze experimental profiles using the Bliss Independence model to calculate combination indices (CI) and avoid inaccuracies from dose-effect curve estimations (CI=log 2 (Eab/(Ea*Eb); synergy CI<0; additivity CI=0; antagonism CI>0) 10-12. (b) Maps of cell growth responses (left) and combination indices (right). We tested the dependency of BRAF^V600E melanoma cell lines for kinases found as differentially active by HT-KAM in patient tumors (FIG. 26a,b). We included everolimus or trametinib (bottom two rows) as experimental ‘positive’ controls and for side-by-side comparison of the effects of other kinase-targeting drugs we tested. Arrows located above and on the left of each cell growth heatmaps serve as indicators of GI50 concentrations for each drug alone.
(§1) To assess the growth/survival response of cell lines to single or combinatorial drug treatments in FIGS. 2-3 and FIGS. 20, 22, 28, 29, we used CellTiter-Glo cell viability assay (Promega; cat #G7571). Cell culture and luminescence readouts were performed in 96- and 384-well plates after 3-day treatments. Drug treatment conditions are described in the text. The effects of drug combinations on cell growth were assessed by calculating drug interaction (D.I.; two-way ANOVA using Prism or Sigma Plot software) and combination index (C.I.; following either the Loewe Additivity^6-9 or Bliss Independence models^[…]). […] We systematically tested the effects of drugs in both regular and low serum culture conditions (i.e. 5% and 0.25% FBS media). To quantitate cell death in FIG. 3 and FIGS. 28-29, FACS analysis of nuclear degradation was performed as previously described^13. Colony formation assay in FIG. 3 and FIG. 30 were performed as previously described^5.

Experiment [2] deals with A375. In words: 3-day CellTiter-Glo cell viability assay. In kind it is cell-based. The settings on record: read-out: GI50, drug alone. The method, then: as §1
Background: Cellular ATP, detected with luciferase, serves as a proxy for viable cell number.

Experiment [3] relates to Sk-Mel-28. Kind of experiment: 3-day CellTiter-Glo cell viability assay. In kind it is cell-based. As to conditions: read-out: GI50, drug alone. The method, then:
as §1

The target of experiment [4] is T1, AKT1 (Homo sapiens, UniProt P31749).
T1 construct: purchased SignalChem A16-10G
T1 sequence (P31749 whole entry): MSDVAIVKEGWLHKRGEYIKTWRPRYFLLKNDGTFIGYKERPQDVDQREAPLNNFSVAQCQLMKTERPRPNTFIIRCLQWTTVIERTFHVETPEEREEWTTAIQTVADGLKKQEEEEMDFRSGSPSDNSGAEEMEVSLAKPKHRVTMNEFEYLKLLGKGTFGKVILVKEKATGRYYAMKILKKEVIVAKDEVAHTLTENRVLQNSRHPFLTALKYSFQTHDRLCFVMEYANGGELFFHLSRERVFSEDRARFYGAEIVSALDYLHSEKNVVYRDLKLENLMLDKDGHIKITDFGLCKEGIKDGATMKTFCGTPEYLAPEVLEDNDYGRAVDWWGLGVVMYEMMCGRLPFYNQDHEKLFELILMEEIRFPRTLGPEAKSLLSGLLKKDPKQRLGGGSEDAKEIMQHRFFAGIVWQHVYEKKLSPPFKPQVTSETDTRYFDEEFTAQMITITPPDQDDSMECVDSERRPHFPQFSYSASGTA
Kind of experiment: HT-KAM ATP-consumption kinase activity assay with inhibitors. In kind it is biochemical. As to conditions: control assays, data not shown.

Experiment [5] deals with M032R6.X1. CL. Kind of experiment: 3-week colony formation assay. In kind it is cell-based. The settings on record: PDX-derived cell line with high RPS6KB1.
Source text: (§2) (a-b) Phospho-RPS6KB profiles of two patient-derived xenografts (PDXs) tumor tissues (a) and related cell lines (b). PDXs were previously^4,5 established from patients refractory to BRAF^V600E-therapy. A limited number of primary cell lines were derived from these PDX's. (c) Sensitivity of primary melanoma cell lines to RPS6KB-inhibitor PF-4708671 in 3-week colony formation assays.
as §1

In experiment [6] the test system is M061R.X1. CL. In words: 3-week colony formation assay. As to conditions: PDX-derived cell line without high RPS6KB1. It is filed as cell-based.
Source text: as §2, §1

For experiment [7], the target named is LCK (Homo sapiens, UniProt P06239). The settings on record: literature reports; cited from earlier work.
Chain of LCK (P06239 whole entry, species assumed): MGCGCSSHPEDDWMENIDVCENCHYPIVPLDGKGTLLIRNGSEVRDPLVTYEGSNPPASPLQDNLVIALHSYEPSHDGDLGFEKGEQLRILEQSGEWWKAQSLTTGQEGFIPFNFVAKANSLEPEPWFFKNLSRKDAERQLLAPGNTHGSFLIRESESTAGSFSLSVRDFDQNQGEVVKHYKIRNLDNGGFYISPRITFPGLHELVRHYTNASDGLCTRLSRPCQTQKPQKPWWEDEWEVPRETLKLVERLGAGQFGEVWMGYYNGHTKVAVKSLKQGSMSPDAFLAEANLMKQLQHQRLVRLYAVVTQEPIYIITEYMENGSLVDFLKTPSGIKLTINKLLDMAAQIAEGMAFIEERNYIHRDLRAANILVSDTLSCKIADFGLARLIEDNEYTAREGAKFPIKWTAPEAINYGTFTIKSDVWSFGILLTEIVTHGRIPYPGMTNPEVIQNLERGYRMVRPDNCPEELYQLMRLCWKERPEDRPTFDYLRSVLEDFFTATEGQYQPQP
Experiment [8] deals with WiDr cells. Kind of experiment: 3-day cell viability assay. In kind it is cell-based. The settings on record: Homo sapiens, 72 h, read-out: GI50 concentration.
Source text: FIG. 20. Response of BRAF^V600E CRC cells to targeted therapy combinations. To validate the kinase activity signatures of VEM-resistant WiDr cells found by HT-KAM screen, and as a mean to assess the role of these kinases (AKT1, PDPK1, PRKCA, SGK1) as mediators of the response to VEM and their potential value as druggable vulnerabilities in our model, we used 3-day cell viability assays to monitor the response of cells to drug combinations.
as §1

The subject of experiment [9] is A375 myrAKT1 cells. In words: 3-day cell viability assay, myrAKT1-expressing cells. In kind it is cell-based. As to conditions: myrAKT1-expressing vs control counterpart; p=2.77E-06.
Source text: FIG. 29. A375 expressing a constitutively active AKT1 oncogenic kinase remain sensitive to RPS6KB- or PIM-targeting. We exogenously expressed myrAKT1 (i.e. a constitutively active oncogenic AKT1) in A375 cells. We then tested the sensitivity of A375 myrAKT1 cells to drug combinations.
as §1

Where [10] appears, read: Homo sapiens, A-375, 72 h, 0.25% FBS media.
The mark [11] stands for this setting: Homo sapiens, A-375, 72 h, 5% FBS media.
The mark [12] stands for this setting: Homo sapiens, SK-MEL-28, 72 h, 0.25% FBS media.
The mark [13] stands for this setting: Homo sapiens, SK-MEL-28, 72 h, 5% FBS media.

The text below walks through data of patent publication US20210333285A1, “DETECTION OF PHOSPHOKINASE SIGNATURES” (The Regents of the University of California, priority 2018, published 2021).

Where two headings read alike, the source gives them in different places.

Regarding `O=C1Cc2c([nH]c3ccc(Br)cc23)-c2ncccc2N1` [1-Azakenpaullone], the “effect of combination with VEM on cell growth / combination index” value (from here on “effect … on cell growth / combination index”) in [1] is reported as “antagonizing the effects of VEM treatment”. Also, the GI50 was 2.5 µM in experiment [2] (0.25% FBS media), 20 µM in [2] (5% FBS media), 10 µM in experiment [3] (0.25% FBS media) and 20 µM in experiment [3] (5% FBS media).
Regarding `N[C@@H]1CCCN(c2c(/C=C3\SC(=O)NC3=O)cccc2-c2ccccc2)C1` [AZD1208], the “effect … on cell growth / combination index” value in [1] is listed as “strong growth inhibitory effects”. Further, the GI50 came to 12.5 µM in experiment [2] (0.25% FBS media), 12.5 µM in experiment [2] (5% FBS media), 25 µM in [3] (0.25% FBS media) and 25 µM in experiment [3] (5% FBS media).
Regarding `CC(C)CCN1c2nc(Nc3cc(F)c(O)c(F)c3)ncc2N(C)C(=O)C1C` (stereo not shown) [BI-D1870], the “effect … on cell growth / combination index” value in experiment [1] is on record as “additive effects only”. The GI50 is over 50 µM in experiment [2] (0.25% FBS media), 12.5 µM in [2] (5% FBS media), 12.5 µM in experiment [3] (0.25% FBS media) and 25 µM in experiment [3] (5% FBS media).
`COc1ccc2c(c1)c(C1=C(c3c[nH]c4ccccc34)C(=O)NC1=O)cn2CCCN(C)C` [Go6983]: the “effect … on cell growth / combination index” value in [1] is “limited additivity effects”.
In the case of `Cn1cc(-c2ccc(F)c(C(F)(F)F)c2)nc1C1CCN(c2ncnc3[nH]ncc23)CC1` [LY2584702], the “effect … on cell growth / combination index” value in experiment [1] is given as “strong growth inhibitory effects”. Moreover, the GI50 is over 200 µM in experiment [2] (setting [10]), 50 µM in [2] (setting [11]), 100 µM in [3] (setting [12]) and 100 µM in [3] (setting [13]).
For the compound `NC1(c2ccc(-c3nc4ccn5c(=O)[nH]nc5c4cc3-c3ccccc3)cc2)CCC1` [MK2206], the GI50 in experiment [2] (setting [10]) came to 2.5 µM; in experiment [2] (setting [11]) it was 10 µM; in experiment [3] (setting [12]) it was 5 µM; in experiment [3] (setting [13]), 2.5 µM. In experiment [4], the “effect on AKT1 activity” value is on record as “effectively decreased AKT1 activity”.
Consider `CCc1cncnc1N1CCN(Cc2nc3ccc(C(F)(F)F)cc3[nH]2)CC1` [PF-4708671], for which the “effect … on cell growth / combination index” value in experiment [1] is “strong growth inhibitory effects”. Also, the GI50 in experiment [2] (0.25% FBS media) came to 16 µM; in experiment [2] (5% FBS media), 32 µM; in experiment [3] (0.25% FBS media), 16 µM; in [3] (5% FBS media), 32 µM. The results for the “sensitivity in colony formation” value in [5] and in [6] were “sensitive” and “not sensitive”, respectively.
Broadly, the IC50 is the concentration that inhibits the measured activity by half. As to `CN(C)S(=O)(=O)c1ccc2c(c1)/C(=C/c1cc3c([nH]1)CCCC3)C(=O)N2` [SU6656], the IC50 in experiment [7] was over 5 µM.
On to `CN1CCN(c2nc(C3=C(c4c[nH]c5ccccc45)C(=O)NC3=O)c3ccccc3n2)CC1` [Sotrastaurin, sotrastaurin], for which the “effect … on cell growth / combination index” value in experiment [1] is recorded as “limited additivity effects”.
`CCCS(=O)(=O)Nc1ccc(F)c(C(=O)c2c[nH]c3ncc(-c4ccc(Cl)cc4)cc23)c1F` [VEM, vemurafenib]: the GI50 in experiment [2] (setting [10]) came to 0.02 µM; in experiment [2] (setting [11]) it was 0.15 µM; in [3] (setting [12]) it was 0.31 µM; in experiment [3] (setting [13]), 0.63 µM; in [8], 2 µM. Also, the “increase in GI50 versus control A375” value in experiment [9] is listed as 65%.
`CO[C@H]1C[C@@H]2CC[C@@H](C)[C@@](O)(O2)C(=O)C(=O)N2CCCC[C@H]2C(=O)O[C@H]([C@H](C)C[C@@H]2CC[C@@H](OCCO)[C@H](OC)C2)CC(=O)[C@H](C)/C=C(\C)[C@@H](O)[C@@H](OC)C(=O)[C@H](C)C[C@H](C)/C=C/C=C/C=C/1C` [everolimus]: the GI50 in experiment [2] (setting [10]) stood at 10 µM; in experiment [2] (setting [11]), 5 µM; in experiment [3] (setting [12]), 10 µM; in experiment [3] (setting [13]), 10 µM.
Take `CC(=O)Nc1cccc(-n2c(=O)n(C3CC3)c(=O)c3c(Nc4ccc(I)cc4F)n(C)c(=O)c(C)c32)c1` [trametinib]: the GI50 in experiment [2] (setting [10]) came out at 0.0025 µM; in [2] (setting [11]) it was 0.005 µM; in [3] (setting [12]) it was 0.01 µM; in experiment [3] (setting [13]), 0.01 µM.
